The subject of assay [1] is iNOS mRNA. Description: iNOS mRNA expression (Northern Blot). The class given is cell-based, human. As for the experimental part: Total RNA was isolated from 2 x 10^6 chondrocytes stimulated using the STAT-60 reagent (Tel-Test, Friendswood, TX). RNA for each sample was quantified photometrically, and 5 µg was separated on 1.2% agarose, 6% formaldehyde gels. After electrophoresis, the gels were photographed, and the RNA was transferred onto HybondN nylon membranes (BRL, Baithesburg, MD) by capillary blotting. Membranes were air-dried and incubated for 2 hrs at 80°C. Prehybridization was done for 2 hrs at 60°C in 5 x SCC, 1 mM EDTA, 0.2% SDS and 5 x Denhardt solution. Radio-labeled probe was added and hybridization was carried out overnight at 60°C. After hybridization, the filters were rinsed twice in 2 x SSC, 0.1% SDS, washed once in 2 x SCC, 0.1 % SDS at 60°C and once in 0.2 x SCC, 0.1 % SDS at 60°C. The membranes were covered with plastic wrap and exposed with an intensifying screen for 12 hr at -70°C. The probes used for the hybridization were prepared as described earlier (Geng et al., (1993) J. Immunol. 151:6692; Geller et al., (1993) Proc. Natl. Acad. Sci. USA 90:3491).

Assay [2] concerns IL-6. Nature of the assay: IL-6 production in IL-1β stimulated chondrocytes (ELISA). As to conditions: p < 0.001. The assay is classed as cell-based, human. As for the experimental part:
Chondrocytes were plated at 40,000 cells/well in 96-well plates in the presence of 1 % FBS. After 48 h, the medium was changed, and the cells were stimulated with IL-1β (Sigma) at a concentration of 5 ng/ml for 24 h. NO production was detected as NO2 accumulation in the culture supernatants by the Griess reaction as described elsewhere (Heval et al., (1994) Methods Enzymol. 233:250). IL-6 in the culture supernatants was measured by ELISA (R&D Systems, Minneapolis, MN) in accordance with the supplier's protocol.
(In general: In an ELISA, binding on a coated surface is turned into a signal by an enzyme label.)

The subject of assay [3] is bradykinin-induced pain. Nature of the assay: Bradykinin-induced pain after intra-articular administration (walking behavior pain score). The class given is in vivo. As to conditions: Wistar rats, Figure 7. How it is done:
The purpose of this study was to investigate the analgesic effects of GlcNAc with or without liposomal formulations, injected intra-articularly into the joint of Wistar rats. Pain was induced by intra-articular administration of bradykinin. Adult male Wistar rats with a weight range from 220g to 250g were obtained from Laboratory Animals Centre, National University of Singapore. Bradykinin and GlcNAc were obtained from Sigma. The liposomes were prepared as described above. 50 µl of GlcNAc solution or an GIcNAc formulated liposome suspension was injected into a rat joint cavity. An equal volume of saline was given intra-articularly as a control. 50 µl of bradykinin (60 µg/ml or at the indicated concentration) was given intra-articularly at different time points following the administration of GlcNAc. Changes in walking behavior caused by intra-articular injection of bradykinin were used to define induced pain criteria in rats. The methods used to observe the pain response are defined in Table 2. The degree of pain was assigned a score according to the criteria in Table 3. Table 2 [table] [table]

In assay [4] the test system is ERK. Nature of the assay: IL-1β induced MAP kinase activation, ERK (phospho Western blot). The assay is classed as cell-based, human. Conditions: induced by IL-1β. As for the experimental part: (§1) Whole cell extracts were prepared from 3 x 10^6 chondrocytes stimulated as described above by lysing the cells on the plate with ice cold lysis buffer (10 mM TrisHCl pH 7.6, 158 mM NaCl, 1 mM EDTA, 0.1% SDS, 1% Triton X-100, leupeptin […], aprotinin 1µg/ml, and 0.5 mM PMSF), which was added immediately before use. The lysates were transferred to Eppendorf tubes and centrifuged at 20,000 g for 30 min at 4 °C. The supernatants were transferred into fresh tubes, and the protein concentration was determined by Bradford assay. Similar amounts of protein were separated by 10% SDS PAGE and transferred to a nitrocellulose filter (Schleicher & Schuell, Keene, NH) by electroblotting. The filter was blocked overnight in 5% milk powder/TBS-T solution and then further incubated with one of the following antibodies: anti-iNOS (C-19, Santa Cruz Biotechnology, Inc., Santa Cruz, CA), anti-COX-2 (Cayman Chemical, Ann Arbor, MI), anti-COX-1 (H-3, Santa Cruz Biotechnology, Inc.), anti-phospho-JNK (phosphoThr 183 /Tyr 185, New England Biolabs, Inc., Beverly, MA), anti-phospho-p38MAP (phospho-Thr […]/Tyr 182, New England Biolabs, Inc.) or anti-phospho-ERK (phosphoThr 180/Tyr 182, New England Biolabs, Inc.) for 2 hrs. […]

Assay [5] concerns NF-κB. Description: IL-1β-induced nuclear translocation of NF-κB (gel shift of nuclear extracts). The assay is classed as cell-based, human. As for the experimental part: Nuclear protein extracts were prepared as follows: 2 x 10^6 chondrocytes were stimulated as indicated. The cells were harvested by trypsinization, washed once with ice cold PBS and lysed in 10 mM Tris-HCl buffer pH 7.5 containing 2 mM MgCl2, 140 mM NaCl, 0.5 mM DTT, 0.05% Triton X-100, 0.5 mM PMSF, leupeptin 1 µg/ml and aprotinin 1 µg/ml. The nuclei were spun down, resuspended in 20 mM HEPES buffer pH 7.9, containing 25% glycerol, 420 mM NaCl, 1.5 mM MgCl2, 0.2 mM EDTA, 0.5 mM DTT, 0.5 mM PMSF, leupeptin 1 µg/ml and aprotinin 1 µg/ml, and rotated at 4°C for 30 minutes. After removal of the nuclear debris by centrifugation, the protein concentration of the lysate was determined by Bradford assay. Equal amounts of the nuclear extracts (2 µg) were incubated for 15 minutes at room temperature with poly-(dI-dC)poly-(dI-dC) (0.1 mg/ml), BSA (1 mg/ml), 1 x […] counts of double-stranded radiolabeled oligodeoxynucleotide containing the NF-κB consensus DNA binding site (sequence: 5'-[…]-3') in 20 mM HEPES buffer pH 7.9 containing 10% glycerol, 420 mM NaCl, 1.5 mM MgCl2, 0.2 mM EDTA, 0.5 mM DTT and 0.5 mM PMSF. For competition experiments, unlabeled NF-κB oligodeoxynucleotide or oligodeoxynucleotide containing the Oct-1 consensus sequence were added at 100-fold molar excess to the binding reactions 10 minutes prior to the addition of radiolabeled NFκB oligodeoxynucleotide. […]
On the technique in general: Mobility shift assays separate free from complexed probe on a gel.

Assay [6] relates to COX-2 protein. Nature of the assay: COX-2 protein expression in IL-1β stimulated chondrocytes (Western Immunoblot). The class given is cell-based, human. As for the experimental part: as §1
(In general: Immunoblotting shows a protein as a band on a membrane.)

“Also recorded” adds a separate entry of the source.

With `CC(=O)N[C@H]1C(O)O[C@H](CO)[C@@H](O)[C@@H]1O` (stereo partly drawn) [GlcNAc, N-acetylglucosamine], the “expression of iNOS mRNA” value in assay [1] is “strongly inhibited”. Besides, the IL-6 production result in assay [2] is on record as “inhibited”. Also, the “analgesic effects on bradykinin-induced pain (pain scores)” value in assay [3] was “small, but statistically insignificantly, analgesic effects; also recorded: small, but statistically insignificant, analgesic effects”. Also, the “ERK MAP kinase activation” value in assay [4] is “does not inhibit”. In assay [5], the “IL-1β-induced nuclear translocation of NF-κB” value is recorded as “did not affect”. The “expression of COX-2 protein” value in assay [6] was “inhibited”.

These data come from patent publication EP1379135B1, “FORMULATIONS COMPRISING ENTRAPPED ACTIVE INGREDIENTS AND USES THEREOF” (THE SCRIPPS RESEARCH INSTITUTE, priority 2001, dated 2002).
